{"source": "patent US20140221361A1", "about": "“C-19 MODIFIED TRITERPENOIDS WITH HIV MATURATION INHIBITORY ACTIVITY” (priority 2013, published 2014)", "data": [{"system": "recombinant NL4-3 virus (Renilla luciferase in nef, Gag P373S)", "experiment": "HIV cell culture assay (luciferase reporter, MT-2 cells)", "assay_type": "cell-based, HIV-1", "settings": "MT-2 cells infected for 4-5 days with NLRluc recombinants; luciferase activity; serial dilutions of inhibitor", "method": "(§1) MT-2 cells and 293T cells were obtained from the NIH AIDS Research and Reference Reagent Program. MT-2 cells were propagated in RPMI 1640 media supplemented with 10% heat inactivated fetal bovine serum, […]. The 293T cells were propagated in DMEM media supplemented with 10% heat inactivated fetal bovine serum (FBS), 100 units/ml penicillin G and 100 µg/ml streptomycin. The proviral DNA clone of NL4-3 was obtained from the NIH AIDS Research and Reference Reagent Program. A recombinant NL4-3 virus, in which a section of the nef gene from NL4-3 was replaced with the Renilla luciferase gene, was used as a reference virus. In addition, residue Gag P373 was converted to P373S. Briefly, the recombinant virus was prepared by transfection of the altered proviral clone of NL4-3. Transfections were performed in 293T cells using LipofectAMINE PLUS from Invitrogen (Carlsbad, Calif.), according to manufacturer's instruction. The virus was titered in MT-2 cells using luciferase enzyme activity as a marker. Luciferase was quantitated using the Dual Luciferase kit from Promega (Madison, Wis.), with modifications to the manufacturer's protocol. The diluted Passive Lysis solution was pre-mixed with the re-suspended Luciferase Assay Reagent and the re-suspended Stop & Glo Substrate (2:1:1 ratio). Fifty (50) μL of the mixture was added to each aspirated well on assay plates and luciferase activity was measured immediately on a Wallac TriLux (Perkin-Elmer). Antiviral activities of inhibitors toward the recombinant virus were quantified by measuring luciferase activity in cells infected for 4-5 days with NLRluc recombinants in the presence serial dilutions of the inhibitor.", "units": {"EC50": "nM"}, "values": [{"smiles": "CC(CO)[C@@H]1CC[C@]2(NCCN3CCS(=O)(=O)CC3)CC[C@]3(C)[C@H](CC[C@@H]4[C@@]5(C)CC=C(c6ccc(C(=O)O)c(F)c6)C(C)(C)[C@@H]5CC[C@]43C)[C@@H]12", "note": "(single isomer, unassigned) [Example A5]", "EC50": 6.89}, {"smiles": "CC(C(=O)O)[C@@H]1CC[C@]2(NCCN3CCS(=O)(=O)CC3)CC[C@]3(C)[C@H](CC[C@@H]4[C@@]5(C)CC=C(c6ccc(C(=O)O)c(F)c6)C(C)(C)[C@@H]5CC[C@]43C)[C@@H]12", "note": "(stereo partly drawn) [Example A6, 4-((1R,3aS,5aR,5bR,7aR,11aS,11bR,13aR,13bR)-1-(1-carboxyethyl)-3a-((2-(1,1-dioxidothiomorpholino)ethyl)amino)-5a,5b,8,8,11a-pentamethyl-2,3,3a,4,5,5a,5b,6,7,7a,8,11,11a,11b,12,13,13a,13b-octadecahydro-1H-cyclopenta[a]chrysen-9-yl)-2-fluorobenzoic acid]", "EC50": 390}, {"smiles": "CC([C@@H]1CC[C@]2(NCCN3CCS(=O)(=O)CC3)CC[C@]3(C)[C@H](CC[C@@H]4[C@@]5(C)CC=C(c6ccc(C(=O)O)cc6)C(C)(C)[C@@H]5CC[C@]43C)[C@@H]12)N(C)C", "note": "(single isomer, unassigned) [Example B40]", "EC50": 40}]}, {"system": "recombinant NL4-3 virus (Renilla luciferase in nef, Gag P373S)", "experiment": "HIV cell culture assay (luciferase reporter, MT-2 cells)", "assay_type": "cell-based, HIV-1", "settings": "Renilla, NL43, MT-2 cells infected for 4-5 days with NLRluc recombinants; luciferase activity; serial dilutions of inhibitor", "method": "as §1", "units": {"EC50": "nM"}, "values": [{"smiles": "CC(CN1CCS(=O)(=O)CC1)[C@@H]1CC[C@]2(NCCN3CCS(=O)(=O)CC3)CC[C@]3(C)[C@H](CC[C@@H]4[C@@]5(C)CC=C(c6ccc(C(=O)O)cc6)C(C)(C)[C@@H]5CC[C@]43C)[C@@H]12", "note": "(single isomer, unassigned) [Example B18]", "EC50": 1.57}, {"smiles": "CC1(C)C(c2ccc(C(=O)O)cc2)=CC[C@]2(C)[C@H]3CC[C@@H]4[C@H]5[C@H](C(=O)O)CC[C@]5(NCCN5CCS(=O)(=O)CC5)CC[C@@]4(C)[C@]3(C)CC[C@@H]12", "note": "[Example B17, (1R,3aS,5aR,5bR,7aR,11aS,11bR,13aR,13bS)-9-(4-carboxyphenyl)-3a-((2-(1,1-dioxidothiomorpholino)ethyl)amino)-5a,5b,8,8,11a-pentamethyl-2,3,3a,4,5,5a,5b,6,7,7a,8,11,11a,11b,12,13,13a,13b-octadecahydro-1H-cyclopenta[a]chrysene-1-carboxylic acid]", "EC50": 2070}, {"smiles": "C=C(CO)[C@@H]1CC[C@]2(NC(=O)OC(C)(C)C)CC[C@]3(C)[C@H](CC[C@@H]4[C@@]5(C)CC=C(c6ccc(C(=O)O)c(F)c6)C(C)(C)[C@@H]5CC[C@]43C)[C@@H]12", "note": "[Example A1, 4-((1R,3aS,5aR,5bR,7aR,11aS,11bR,13aR,13bS)-3a-((tert-butoxycarbonyl)amino)-1-(3-hydroxyprop-1-en-2-yl)-5a,5b,8,8,11a-pentamethyl-2,3,3a,4,5,5a,5b,6,7,7a,8,11,11a,11b,12,13,13a,13b-octadecahydro-1H-cyclopenta[a]chrysen-9-yl)-2-fluorobenzoic acid]", "EC50": 20}, {"smiles": "CC(NC(=O)C(F)(F)F)[C@@H]1CC[C@]2(NCCN3CCS(=O)(=O)CC3)CC[C@]3(C)[C@H](CC[C@@H]4[C@@]5(C)CC=C(c6ccc(C(=O)O)cc6)C(C)(C)[C@@H]5CC[C@]43C)[C@@H]12", "note": "(stereo partly drawn) [Example B23, 4-((1R,3aS,5aR,5bR,7aR,11aS,11bR,13aR,13bS)-3a-((2-(1,1-dioxidothiomorpholino)ethyl)amino)-5a,5b,8,8,11a-pentamethyl-1-(1-(2,2,2-trifluoroacetamido)ethyl)-2,3,3a,4,5,5a,5b,6,7,7a,8,11,11a,11b,12,13,13a,13b-octadecahydro-1H-cyclopenta[a]chrysen-9-yl)benzoic acid]", "EC50": 1.16}, {"smiles": "CN[C@]12CC[C@@H](C3(C)CC3)[C@@H]1[C@H]1CC[C@@H]3[C@@]4(C)CC=C(c5ccc(C(=O)O)cc5)C(C)(C)[C@@H]4CC[C@@]3(C)[C@]1(C)CC2", "note": "[Example B50, 4-((1R,3aS,5aR,5bR,7aR,11aS,11bR,13aR,13bR)-5a,5b,8,8,11a-pentamethyl-3a-(methylamino)-1-(1-methylcyclopropyl)-2,3,3a,4,5,5a,5b,6,7,7a,8,11,11a,11b,12,13,13a,13b-octadecahydro-1H-cyclopenta[a]chrysen-9-yl)benzoic acid]", "EC50": 1.36}, {"smiles": "CC1([C@@H]2CC[C@]3(C(=O)O)CC[C@]4(C)[C@H](CC[C@@H]5[C@@]6(C)CC=C(c7ccc(C(=O)O)cc7)C(C)(C)[C@@H]6CC[C@]54C)[C@@H]23)CC1", "note": "[Example B48, (1R,3aS,5aR,5bR,7aR,11aS,11bR,13aR,13bR)-9-(4-carboxyphenyl)-5a,5b,8,8,11a-pentamethyl-1-(1-methylcyclopropyl)-2,3,3a,4,5,5a,5b,6,7,7a,8,11,11a,11b,12,13,13a,13b-octadecahydro-1H-cyclopenta[a]chrysene-3a-carboxylic acid]", "EC50": 10}, {"smiles": "CC([C@@H]1CC[C@]2(NCCN3CCS(=O)(=O)CC3)CC[C@]3(C)[C@H](CC[C@@H]4[C@@]5(C)CC=C(c6ccc(C(=O)O)cc6)C(C)(C)[C@@H]5CC[C@]43C)[C@@H]12)N1CCOCC1", "note": "(stereo partly drawn) [Example B20, 4-((1R,3aS,5aR,5bR,7aR,11aS,11bR,13aR,13bS)-3a-((2-(1,1-dioxidothiomorpholino)ethyl)amino)-5a,5b,8,8,11a-pentamethyl-1-(1-morpholinoethyl)-2,3,3a,4,5,5a,5b,6,7,7a,8,11,11a,11b,12,13,13a,13b-octadecahydro-1H-cyclopenta[a]chrysen-9-yl)benzoic acid]", "EC50": 2.05}, {"smiles": "CC(CC(=O)O)[C@@H]1CC[C@]2(C(=O)NCCN(C)C)CC[C@]3(C)[C@H](CC[C@@H]4[C@@]5(C)CC[C@H](c6ccc(C(=O)O)cc6)C(C)(C)[C@@H]5CC[C@]43C)[C@@H]12", "note": "(single isomer, unassigned) [Example 20]", "EC50": 30}, {"smiles": "CC1([C@@H]2CC[C@]3(N)CC[C@]4(C)[C@H](CC[C@@H]5[C@@]6(C)CC[C@H](c7ccc(C(=O)O)cc7)C(C)(C)[C@@H]6CC[C@]54C)[C@@H]23)CC1", "note": "[Example B54, 4-((1R,3aS,5aR,5bR,7aS,9S,11aS,11bR,13aR,13bR)-3a-amino-5a,5b,8,8,11a-pentamethyl-1-(1-methylcyclopropyl)icosahydro-1H-cyclopenta[a]chrysen-9-yl)benzoic acid]", "EC50": 0.577}, {"smiles": "C=C(CN(C)C)[C@@H]1CC[C@]2(C(=O)O)CC[C@]3(C)[C@H](CC[C@@H]4[C@@]5(C)CC=C(c6ccc(C(=O)O)cc6)C(C)(C)[C@@H]5CC[C@]43C)[C@@H]12", "note": "[Example 3, (1R,3aS,5aR,5bR,7aR,11aS,11bR,13aR,13bS)-9-(4-carboxyphenyl)-1-(3-(dimethylamino)prop-1-en-2-yl)-5a,5b,8,8,11a-pentamethyl-2,3,3a,4,5,5a,5b,6,7,7a,8,11,11a,11b,12,13,13a,13b-octadecahydro-1H-cyclopenta[a]chrysene-3a-carboxylic acid]", "EC50": 100}, {"smiles": "CC1(C)C(c2ccc(C(=O)O)cc2)=CC[C@]2(C)[C@H]3CC[C@@H]4[C@H]5[C@H](NC(=O)c6ccc(C7(C(F)(F)F)N=N7)cc6)CC[C@]5(NCCN5CCS(=O)(=O)CC5)CC[C@@]4(C)[C@]3(C)CC[C@@H]12", "note": "[Example B45, 4-((1R,3aR,5aR,5bR,7aR,11aS,11bR,13aR,13bS)-3a-((2-(1,1-dioxidothiomorpholino)ethyl)amino)-5a,5b,8,8,11a-pentamethyl-1-(4-(3-(trifluoromethyl)-3H-diazirin-3-yl)benzamido)-2,3,3a,4,5,5a,5b,6,7,7a,8,11,11a,11b,12,13,13a,13b-octadecahydro-1H-cyclopenta[a]chrysen-9-yl)benzoic acid]", "EC50": 50}, {"smiles": "C=C(COCCN1CCOCC1)[C@@H]1CC[C@]2(C(=O)NCCN(C)C)CC[C@]3(C)[C@H](CC[C@@H]4[C@@]5(C)CC=C(c6ccc(C(=O)O)cc6)C(C)(C)[C@@H]5CC[C@]43C)[C@@H]12", "note": "[Example 14, 4-((1R,3aS,5aR,5bR,7aR,11aS,11bR,13aR,13bS)-3a-(2-(dimethylamino)ethylcarbamoyl)-5a,5b,8,8,11a-pentamethyl-1-(3-(2-morpholinoethoxy)prop-1-en-2-yl)-2,3,3a,4,5,5a,5b,6,7,7a,8,11,11a,11b,12,13,13a,13b-octadecahydro-1H-cyclopenta[a]chrysen-9-yl)benzoic acid]", "EC50": 0.72}, {"smiles": "CC(O)[C@@H]1CC[C@]2(NCCN3CCS(=O)(=O)CC3)CC[C@]3(C)[C@H](CC[C@@H]4[C@@]5(C)CC=C(c6ccc(C(=O)O)cc6)C(C)(C)[C@@H]5CC[C@]43C)[C@@H]12", "note": "(single isomer, unassigned) [Example B11]", "EC50": 2.18}, {"smiles": "CC(CN1CCOCC1)[C@@H]1CC[C@]2(NCCN3CCS(=O)(=O)CC3)CC[C@]3(C)[C@H](CC[C@@H]4[C@@]5(C)CC=C(c6ccc(C(=O)O)cc6)C(C)(C)[C@@H]5CC[C@]43C)[C@@H]12", "note": "(single isomer, unassigned) [Example B16]", "EC50": 0.827}, {"smiles": "CN[C@]12CC[C@@H](C3(C)CC3)[C@@H]1[C@H]1CC[C@@H]3[C@@]4(C)CC[C@H](c5ccc(C(=O)O)cc5)C(C)(C)[C@@H]4CC[C@@]3(C)[C@]1(C)CC2", "note": "[Example B55]", "EC50": 1.51}]}]}
